pIC50: −log10 of the molar value. Bridge positions count the residues as written; N and C are the ends. Square brackets hold non-standard residues; d marks the D form. Peptide text beside a SMILES is read from it. * marks the point of attachment. Bip = N[C@@H](Cc1ccc(-c2ccccc2)cc1)C(=O)O; Phe(3-Me) = Cc1cccc(C[C@H](N)C(=O)O)c1; Cha = N[C@@H](CC1CCCCC1)C(=O)O; Carboxymethyl = O=C(O)C*; Orn = NCCC[C@H](N)C(=O)O; Aun = NCCCCCCCCCCC(=O)O; Dab = NCC[C@H](N)C(=O)O; Dap = NC[C@H](N)C(=O)O; AEEA = NCCOCCOCC(=O)O
Each molecule was assayed against T1, PD-1/PD-L1 interaction (PE-labeled human PD-L1-Ig binding to Jurkat cell line over-expressing human PD-1) (Homo sapiens, UniProt Q15116) (assay: Jurkat-PD-1 Cell Binding High-Content Screening Assay (CBA)). Details: Jurkat cell line over-expressing human PD-1; PE-labeled PD-L1-Ig 20 nM final; read-out: Jurkat hPD1-PDL1 IC50.
T1 construct: expressed in transfected cells; host or cells: Jurkat
Format: cell-based
Procedure, shortened: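 Read-out is high-content imaging of cell-bound phycoerythrin-tagged PD-L1-Ig on fixed, Hoechst-counterstained Jurkat cells that over-express human PD-1. Compound exposure lasts 2 h at 37° C before the labeled ligand (20 nM final) is added for a further hour.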

T1 sequence (Q15116 25-288): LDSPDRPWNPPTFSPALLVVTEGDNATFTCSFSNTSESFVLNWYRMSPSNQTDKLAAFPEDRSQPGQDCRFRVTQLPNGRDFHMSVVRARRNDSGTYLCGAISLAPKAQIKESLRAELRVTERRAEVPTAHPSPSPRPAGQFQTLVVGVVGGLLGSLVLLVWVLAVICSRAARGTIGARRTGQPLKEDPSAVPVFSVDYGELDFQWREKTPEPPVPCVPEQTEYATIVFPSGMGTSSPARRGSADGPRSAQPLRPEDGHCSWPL

Row | SMILES | pIC50
1 | CC(C)C[C@H]1NC(=O)[C@H](CCCN)NC(=O)[C@H](C(C)C)NC(=O)[C@H](Cc2ccc(-c3ccccc3)cc2)NC(=O)[C@H](C(C)C)NC(=O)[C@H](Cc2c[nH]c3ccccc23)NC(=O)[C@H](CC(=O)O)NC(=O)[C@H](Cc2ccc(OCC(=O)O)cc2)NC(=O)[C@H](CN)NC(=O)CSC[C@@H](C(=O)N[C@@H](CCN)C(=O)NCCOCCOCC(=O)NCCCCCCCCCCC(=O)O)NC(=O)[C@H](CCCCN)NC(=O)[C@H](C(C)C)NC(=O)[C@H](CC2CCCCC2)NC(=O)[C@H](CCN)NC1=O [Compound 2549] ({CH2CO}-[Dap]Y(Carboxymethyl)DWV[Bip]V[Orn][dL][Dab][Cha]VKC[Dab][AEEA][Aun]-OH; thioether N-14) | 8.03
2 | Cc1cccc(C[C@@H]2NC(=O)[C@H](CC(=O)O)NC(=O)[C@H](Cc3ccc(OCC(=O)O)cc3)NC(=O)[C@H](CN)NC(=O)CSC[C@@H](C(=O)N[C@@H](CCN)C(=O)NCCOCCOCC(=O)NCCCCCCCCCCC(=O)O)NC(=O)[C@H](CN)NC(=O)[C@H](C(C)C)NC(=O)[C@H](CC3CCCCC3)NC(=O)[C@H](CCN)NC(=O)[C@@H](CC(C)C)NC(=O)[C@H](CCCN)NC(=O)[C@H](C(C)C)NC(=O)[C@H](Cc3ccc(-c4ccccc4)cc3)NC(=O)[C@H](C(C)C)NC2=O)c1 [Compound 2550] ({CH2CO}-[Dap]Y(Carboxymethyl)D[Phe(3-Me)]V[Bip]V[Orn][dL][Dab][Cha]V[Dap]C[Dab][AEEA][Aun]-OH; thioether N-14) | 8.10
3 | Cc1cccc(C[C@@H]2NC(=O)[C@H](CC(=O)O)NC(=O)[C@H](Cc3ccc(OCC(=O)O)cc3)NC(=O)[C@H](CN)NC(=O)CSC[C@@H](C(=O)N[C@@H](CCN)C(=O)NCCOCCOCC(=O)NCCCCCCCCCCC(=O)O)NC(=O)[C@H](CCCN)NC(=O)[C@H](C(C)C)NC(=O)[C@H](CC3CCCCC3)NC(=O)[C@H](CCN)NC(=O)[C@@H](CC(C)C)NC(=O)[C@H](CCCN)NC(=O)[C@H](C(C)C)NC(=O)[C@H](Cc3ccc(-c4ccccc4)cc3)NC(=O)[C@H](C(C)C)NC2=O)c1 [Compound 2551] ({CH2CO}-[Dap]Y(Carboxymethyl)D[Phe(3-Me)]V[Bip]V[Orn][dL][Dab][Cha]V[Orn]C[Dab][AEEA][Aun]-OH; thioether N-14) | 7.95
4 | Cc1cccc(C[C@@H]2NC(=O)[C@H](CC(=O)O)NC(=O)[C@H](Cc3ccc(OCC(=O)O)cc3)NC(=O)[C@H](CN)NC(=O)CSC[C@@H](C(=O)N[C@@H](CCN)C(=O)NCCOCCOCC(=O)NCCCCCCCCCCC(=O)O)NC(=O)[C@H](CCCNC(=N)N)NC(=O)[C@H](C(C)C)NC(=O)[C@H](CC3CCCCC3)NC(=O)[C@H](CCN)NC(=O)[C@@H](CC(C)C)NC(=O)[C@H](CCCN)NC(=O)[C@H](C(C)C)NC(=O)[C@H](Cc3ccc(-c4ccccc4)cc3)NC(=O)[C@H](C(C)C)NC2=O)c1 [Compound 2552] ({CH2CO}-[Dap]Y(Carboxymethyl)D[Phe(3-Me)]V[Bip]V[Orn][dL][Dab][Cha]VRC[Dab][AEEA][Aun]-OH; thioether N-14) | 8.00
5 | CC(C)C[C@H]1NC(=O)[C@H](CCCN)NC(=O)[C@H](C(C)C)NC(=O)[C@H](Cc2ccc(-c3ccccc3)cc2)NC(=O)[C@H](C(C)C)NC(=O)[C@H](Cc2c[nH]c3ccccc23)NC(=O)[C@H](CC(=O)O)NC(=O)[C@H](Cc2ccc(OCC(=O)O)cc2)NC(=O)[C@H](Cc2ccc(OCC(=O)O)cc2)NC(=O)CSC[C@@H](C(=O)N[C@@H](CCN)C(=O)NCCOCCOCC(=O)NCCCCCCCCCCC(=O)O)NC(=O)[C@H](CCCN)NC(=O)[C@H](C(C)C)NC(=O)[C@H](CC2CCCCC2)NC(=O)[C@H](CCN)NC1=O [Compound 2553] ({CH2CO}-Y(Carboxymethyl)Y(Carboxymethyl)DWV[Bip]V[Orn][dL][Dab][Cha]V[Orn]C[Dab][AEEA][Aun]-OH; thioether N-14) | 7.95
